Experimental data taken from PubChem BioAssay AID248 (DTP/NCI, 2004).
Where “and” joins values, the source holds several entries; their conditions need not be identical. Identical values can stand only once. Toxic doses and inconclusive results are not listed.

Tested on: L1210 leukemia ip in BDF1 mice, survival T/C
Assay: NCI In Vivo Anticancer Drug Screen. Data for tumor model L1210 Leukemia (intraperitoneal) in B6D2F1 (BDF1) mice
Conditions: endpoint: mean survival time, higher = longer survival
Procedure, shortened: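 Mice bearing the transplanted tumor received compound or vehicle. Survival of the treated group was divided by that of the vehicle-treated control group to give the ratio.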

[1] = dose: 100.0 mg/kg/injection, schedule: Q04DX003 (ip), vehicle: Klucel (hydroxypropylcellulose) (HPC)
[2] = dose: 200.0 mg/kg/injection, schedule: Q04DX003 (ip), vehicle: Klucel (hydroxypropylcellulose) (HPC)
[3] = dose: 100.0 mg/kg/injection, schedule: Q04DX002 (ip), vehicle: Klucel (hydroxypropylcellulose) (HPC)
[4] = dose: 100.0 mg/kg/injection, schedule: Q04DX003 (ip), vehicle: saline
[5] = dose: 200.0 mg/kg/injection, schedule: Q04DX003 (ip), vehicle: saline
[6] = dose: 400.0 mg/kg/injection, schedule: Q04DX003 (ip), vehicle: saline
[7] = dose: 100.0 mg/kg/injection, schedule: Q01DX001 (ip), vehicle: other
[8] = dose: 100.0 mg/kg/injection, schedule: Q01DX001 (ip), vehicle: saline
[9] = dose: 200.0 mg/kg/injection, schedule: Q01DX001 (ip), vehicle: saline
[10] = dose: 400.0 mg/kg/injection, schedule: Q01DX001 (ip), vehicle: saline
[11] = dose: 100.0 mg/kg/injection, schedule: Q01DX009 (ip), vehicle: Klucel (hydroxypropylcellulose) (HPC)
[12] = dose: 200.0 mg/kg/injection, schedule: Q01DX009 (ip), vehicle: Klucel (hydroxypropylcellulose) (HPC)
[13] = dose: 400.0 mg/kg/injection, schedule: Q01DX009 (ip), vehicle: Klucel (hydroxypropylcellulose) (HPC)
[14] = dose: 400.0 mg/kg/injection, schedule: Q04DX003 (ip), vehicle: Klucel (hydroxypropylcellulose) (HPC)
[15] = dose: 200.0 mg/kg/injection, schedule: Q04DX002 (ip), vehicle: Klucel (hydroxypropylcellulose) (HPC)
[16] = dose: 400.0 mg/kg/injection, schedule: Q04DX002 (ip), vehicle: Klucel (hydroxypropylcellulose) (HPC)

Structure (SMILES): CC1CN=C(c2ccc(NC(=O)c3cccc(C(=O)Nc4ccc(C5=NCC(C)N5)cc4)c3)cc2)N1 (configuration not stated)
- T/C (dose: 4.5 mg/kg/injection, schedule: Q01DX Z (ip), vehicle: carboxymethylcellulose (CMC)): 98 % of control
- T/C (dose: 6.8 mg/kg/injection, schedule: Q01DX Z (ip), vehicle: carboxymethylcellulose (CMC)): 95 % of control
- T/C (dose: 10.2 mg/kg/injection, schedule: Q01DX Z (ip), vehicle: carboxymethylcellulose (CMC)): 124 % of control
- T/C (dose: 16.4 mg/kg/injection, schedule: Q01DX Z (ip), vehicle: carboxymethylcellulose (CMC)): 101 % of control
- T/C (dose: 37.0 mg/kg/injection, schedule: Q01DX Z (ip), vehicle: carboxymethylcellulose (CMC)): 155 % of control
- T/C (dose: 40.0 mg/kg/injection, schedule: Q01DX Z (ip), vehicle: carboxymethylcellulose (CMC)): 151 % of control
- T/C (dose: 50.0 mg/kg/injection, schedule: Q## X010 (oral), vehicle: saline): 97 % of control
- T/C (dose: 55.5 mg/kg/injection, schedule: Q01DX Z (ip), vehicle: carboxymethylcellulose (CMC)): 113 % of control and 87 % of control
- T/C (dose: 100.0 mg/kg/injection, schedule: Q## X010 (oral), vehicle: saline): 103 % of control
- T/C (dose: 200.0 mg/kg/injection, schedule: Q## X010 (oral), vehicle: saline): 96 % of control

Structure (SMILES): c1ccc(N=Nc2ccc(NC3=NCCO3)cc2)cc1
- T/C [1]: 95 % of control
- T/C [2]: 98 % of control

Structure (SMILES): CCOC(=O)NCC(CCN(C)C)(CN(C)C)c1cccc2ccccc12 (configuration not stated)
- T/C (dose: 50.0 mg/kg/injection, schedule: Q04DX002 (ip), vehicle: Klucel (hydroxypropylcellulose) (HPC)): 102 % of control
- T/C [3]: 106 % of control

Structure (SMILES): O=C(NNCCO)C(O)C(O)C(O)C(O)CO (configuration not stated)
- T/C [4]: 97 % of control
- T/C [5]: 97 % of control
- T/C [6]: 97 % of control

Structure (SMILES): CCOC(=O)C(O)(C(=O)OCC)c1ccccc1
- T/C [7]: 97 % of control
- T/C (dose: 200.0 mg/kg/injection, schedule: Q01DX001 (ip), vehicle: other): 102 % of control
- T/C (dose: 400.0 mg/kg/injection, schedule: Q01DX001 (ip), vehicle: other): 103 % of control

Structure (SMILES): COc1cccc2ccccc12
- T/C (dose: 100.0 mg/kg/injection, schedule: Q04DX003 (ip), vehicle: saline with Tween-80): 96 % of control
- T/C (dose: 200.0 mg/kg/injection, schedule: Q04DX003 (ip), vehicle: saline with Tween-80): 94 % of control

Structure (SMILES): Clc1cc(/C=C/c2ccccc2)c2ccccc2n1
- T/C [8]: 105 % of control
- T/C [9]: 105 % of control
- T/C [10]: 100 % of control

Structure (SMILES): O=C(NC1c2cc(Cl)ccc2-c2c(Cl)cc(Cl)cc21)C12CC3CC(CC(C3)C1)C2 (configuration not stated)
- T/C [11]: 96 % of control
- T/C [1]: 100 % of control
- T/C [12]: 97 % of control
- T/C [2]: 93 % of control
- T/C [13]: 104 % of control
- T/C [14]: 96 % of control

Structure (SMILES): O=C(Nc1ccc(Cl)cc1)NC1CC1
- T/C (dose: 62.5 mg/kg/injection, schedule: Q01DX009 (ip), vehicle: saline with Tween-80): 91 % of control
- T/C (dose: 125.0 mg/kg/injection, schedule: Q01DX009 (ip), vehicle: saline with Tween-80): 90 % of control
- T/C (dose: 250.0 mg/kg/injection, schedule: Q01DX009 (ip), vehicle: saline with Tween-80): 95 % of control

Structure (SMILES): O=[N+]([O-])C(c1ccccc1)C(C/C(=N/O)c1ccccc1)c1ccccc1 (configuration not stated)
- T/C [3]: 100 % of control
- T/C [15]: 92 % of control
- T/C [16]: 96 % of control

Structure (SMILES): c1ccc(-c2ncnc3c2Cc2ccccc2-3)cc1
- T/C (dose: 100.0 mg/kg/injection, schedule: Q04DX003 (ip), vehicle: saline sonified): 92 % of control
- T/C (dose: 200.0 mg/kg/injection, schedule: Q04DX003 (ip), vehicle: saline sonified): 94 % of control
- T/C (dose: 400.0 mg/kg/injection, schedule: Q04DX003 (ip), vehicle: saline sonified): 97 % of control

Structure (SMILES): O=P(N1CCOCC1)(N1CCOCC1)N1CCOCC1
- T/C [4]: 100 % of control and 112 % of control
- T/C [5]: 98 % of control and 106 % of control
- T/C [6]: 97 % of control and 109 % of control

Structure (SMILES): CC(C)C1=NNC(=O)C1(C)C
- T/C [8]: 105 % of control
- T/C [9]: 108 % of control
- T/C [10]: 108 % of control

Structure (SMILES): CCOc1nc(C)cc(C(=O)O)c1C#N
- T/C (dose: 75.0 mg/kg/injection, schedule: Q01DX001 (ip), vehicle: other): 95 % of control
- T/C (dose: 150.0 mg/kg/injection, schedule: Q01DX001 (ip), vehicle: other): 100 % of control
- T/C (dose: 300.0 mg/kg/injection, schedule: Q01DX001 (ip), vehicle: other): 103 % of control

Structure (SMILES): CC1C2CCC(C2)C(C)C1Br (configuration not stated)
- T/C (dose: 100.0 mg/kg/injection, schedule: Q01DX009 (ip), vehicle: other): 99 % of control
- T/C (dose: 100.0 mg/kg/injection, schedule: Q04DX003 (ip), vehicle: other): 102 % of control
- T/C (dose: 200.0 mg/kg/injection, schedule: Q01DX009 (ip), vehicle: other): 96 % of control
- T/C (dose: 200.0 mg/kg/injection, schedule: Q04DX003 (ip), vehicle: other): 102 % of control
- T/C (dose: 400.0 mg/kg/injection, schedule: Q01DX009 (ip), vehicle: other): 96 % of control
- T/C (dose: 400.0 mg/kg/injection, schedule: Q04DX003 (ip), vehicle: other): 109 % of control

Structure (SMILES): CONS(=O)c1ccc(Cl)cc1 (configuration not stated)
- T/C [3]: 96 % of control
- T/C [15]: 92 % of control
- T/C [16]: 108 % of control

Structure (SMILES): CCNC(=O)c1ccccc1-c1ccccc1C(=O)NCC
- T/C [7]: 104 % of control

Structure (SMILES): CN(C)CCCN1Cc2ccccc2C1
- T/C (dose: 44.0 mg/kg/injection, schedule: Q01DX Z (ip), vehicle: saline): 96 % of control
- T/C (dose: 66.0 mg/kg/injection, schedule: Q01DX Z (ip), vehicle: saline): 100 % of control
- T/C (dose: 100.0 mg/kg/injection, schedule: Q01DX Z (ip), vehicle: saline): 102 % of control

Structure (SMILES): CC(=O)OCC1OC(N2C(=O)/C(=C/c3ccc(Br)s3)SC2=S)C(OC(C)=O)C(OC(C)=O)C1OC(C)=O (configuration not stated)
- T/C (dose: 25.0 mg/kg/injection, schedule: Q01DX005 (ip), vehicle: other): 94 % of control
- T/C (dose: 50.0 mg/kg/injection, schedule: Q01DX005 (ip), vehicle: other): 94 % of control
- T/C (dose: 100.0 mg/kg/injection, schedule: Q01DX005 (ip), vehicle: other): 94 % of control

Structure (SMILES): N#CCOC(=O)c1ccc[nH]1
- T/C (dose: 10.0 mg/kg/injection, schedule: Q01DX001 (ip), vehicle: acetone): 101 % of control
- T/C (dose: 20.0 mg/kg/injection, schedule: Q01DX001 (ip), vehicle: acetone): 100 % of control
- T/C (dose: 40.0 mg/kg/injection, schedule: Q01DX001 (ip), vehicle: acetone): 97 % of control

Structure (SMILES): CC(=O)OC1CCCC(OCC(C)C)O1 (configuration not stated)
- T/C (dose: 40.0 mg/kg/injection, schedule: Q01DX Z (ip), vehicle: saline): 94 % of control
- T/C (dose: 60.0 mg/kg/injection, schedule: Q01DX Z (ip), vehicle: saline): 92 % of control

Structure (SMILES): CCCC(C#N)(c1ccccc1)c1ccccc1
- T/C (dose: 100.0 mg/kg/injection, schedule: Q01DX001 (ip), vehicle: Klucel (hydroxypropylcellulose) (HPC)): 97 % of control
- T/C [11]: 95 % of control
- T/C [1]: 91 % of control
- T/C (dose: 200.0 mg/kg/injection, schedule: Q01DX001 (ip), vehicle: Klucel (hydroxypropylcellulose) (HPC)): 92 % of control
- T/C [12]: 95 % of control
- T/C [2]: 104 % of control
- T/C (dose: 400.0 mg/kg/injection, schedule: Q01DX001 (ip), vehicle: Klucel (hydroxypropylcellulose) (HPC)): 102 % of control
- T/C [14]: 94 % of control

Structure (SMILES): Cc1cccc(C(=O)NN)n1
- T/C (dose: 12.5 mg/kg/injection, schedule: Q01DX009 (ip), vehicle: saline): 94 % of control
- T/C (dose: 25.0 mg/kg/injection, schedule: Q01DX009 (ip), vehicle: saline): 105 % of control

Structure (SMILES): CC(C)(C)NC(=O)Oc1ccccc1C(N)=O
- T/C [11]: 95 % of control
- T/C [12]: 95 % of control
- T/C [13]: 94 % of control

Structure (SMILES): C/C(=N\n1c(-c2ccccc2)nc2ccccc2c1=O)c1ccc(C)cc1
- T/C [11]: 98 % of control
- T/C [12]: 96 % of control
- T/C [13]: 100 % of control

Structure (SMILES): CCCCCCCCCCCCCCCc1cc(=O)n(-c2cccc([N+](=O)[O-])c2)n1C
- T/C [1]: 96 % of control
- T/C [2]: 94 % of control
- T/C [14]: 92 % of control

Structure (SMILES): O=C(Sc1ccccc1)N(c1ccccc1)c1ccccc1
- T/C (dose: 100.0 mg/kg/injection, schedule: Q04DX002 (ip), vehicle: gum acacia): 117 % of control
- T/C (dose: 200.0 mg/kg/injection, schedule: Q04DX002 (ip), vehicle: gum acacia): 101 % of control
- T/C (dose: 400.0 mg/kg/injection, schedule: Q04DX002 (ip), vehicle: gum acacia): 96 % of control
